In ChEMBL document CHEMBL5729293, “Inhibitors of KEAP1-Nrf2 protein-protein interaction” (2022):

experiment: Fluorescence Based Assay: The details of the KEAP1 KELCH ThermoFluor® Assay Construct are as follows: Kelch domain of human KEAP 1 (321-624 aa) was used in the assay. The protein was expressed in E. coli with 6His tag that was cleaved prior to receipt for use.ThermoFluor® experiments were carried out using instruments owned by Janssen Research and Discovery, L.L.C. through its acquisition of 3-Dimensional Pharmaceuticals, Inc. 1,8-ANS (Invitrogen) was used as a fluorescent dye. Protein (KEAP Kelch) and compound solutions were dispensed into black 384-well polypropylene PCR microplates (Abgene) and overlayed with silicone oil (1 μL, Fluka, type DC 200) to prevent evaporation.Reference wells contained KEAP Kelch without compounds, and the assay conditions were as follows: 1.1 μM (0.037mg/mL) KEAP Kelch, 80 μM 1,8-ANS, 25 mM PIPES, pH 7.0, 100 mM NaCl, 0.002% Tween-20.

| Compound | Kd [nM] |
| --- | --- |
| Cc1ccc([C@@H](c2ccn3c(C(F)(F)F)nnc3c2C)C(C)(C)C(=O)O)cc1CN1CC2(CCOCC2)Oc2nc(OCCN3CCOCC3)ccc2S1(=O)=O | < 1 |
| Cc1ccc(C(c2ccn3c(C(F)(F)F)nnc3c2C)C(C)(C)C(=O)O)cc1CN1CC2(CCOCC2)Oc2nc(OCCCO)ccc2S1(=O)=O (stereo unspecified) | < 1 |
| Cc1ccc([C@@H](c2cc(C)n3c(C(F)(F)F)nnc3c2C)C(C)C(=O)O)cc1CN1C[C@@H]2CCCCN2c2ncccc2S1(=O)=O (stereo partly specified) | < 1 |
| Cc1ccc([C@H](CC(=O)O)c2ccn3c(C(F)(F)F)nnc3c2C)cc1CN1CC2(CC2)Oc2nc(NCCN3CCOCC3)ccc2S1(=O)=O | < 1 |
| Cc1ccc([C@H](CC(=O)O)c2ccn3c(C(F)(F)F)nnc3c2C)nc1CN1C[C@@H]2CCCCN2c2ncc(C#N)cc2S1(=O)=O | < 1 |
| Cc1ccc(C(CC(=O)O)c2ccn3c(C4CC4)nnc3c2C)cc1CN1C[C@H]2CCCN2c2ncccc2S1(=O)=O (stereo partly specified) | < 1 |
| Cc1ccc([C@@H](CC(=O)O)c2ccn3c(C(F)F)nnc3c2C)cc1CN1C[C@H]2CCCCN2c2ncc(C#N)cc2S1(=O)=O | < 1 |
| CCn1nnc2c(C)c(C(CC(=O)O)c3ccc(C)c(CN4C[C@@H]5CCCN5c5ncccc5S4(=O)=O)c3)ccc21 (stereo partly specified) | < 1 |
| CCn1nnc2c(C)c([C@@H](CC(=O)O)c3ccc(C)c(CN4C[C@H]5CCCN5c5ccccc5S4(=O)=O)c3)ccc21 | < 1 |
| Cc1ccc([C@H](c2ccn3c(C(F)(F)F)nnc3c2C)C(C)(C)C(=O)O)cc1CN1CC2(CCOCC2)Oc2nc(NC3CC(O)C3)c(C)cc2S1(=O)=O (stereo partly specified) | < 1 |
| Cc1ccc([C@@H](c2ccn3c(C(F)(F)F)nnc3c2C)C(C)(C)C(=O)O)cc1CN1CC2(CCOCC2)Oc2nc(N[C@@H](C)CCO)ccc2S1(=O)=O | < 1 |
| Cc1ccc([C@@H](c2ccn3c(C(F)(F)F)nnc3c2C)C(C)(C)C(=O)O)cc1CN1CC2(CCOCC2)Oc2nc(N[C@H](C)CCO)ccc2S1(=O)=O | < 1 |
| Cc1cnc([C@@H](c2ccn3c(C(F)(F)F)nnc3c2C)C(C)(C)C(=O)O)cc1CN1CC2(CCOCC2)Oc2ncccc2S1(=O)=O | < 1 |
| Cc1ccc(C(CC(=O)O)c2ccc3c(nnn3CC3CC3)c2C)cc1CN1CC2(COC2)Oc2ccccc2S1(=O)=O (stereo unspecified) | < 1 |
| Cc1ccc([C@@H](CC(=O)O)c2ccn3c(C(F)F)nnc3c2C)cc1CN1C[C@@H]2CCCCN2c2ncc(C#N)cc2S1(=O)=O | < 1 |
| CC[C@@H]1CN(Cc2nc([C@@H](CC(=O)O)c3ccc4c(nnn4C4CC4)c3C)ccc2C)S(=O)(=O)c2cccnc2O1 | < 1 |
| Cc1ccc([C@@H](c2ccn3c(C4CC4)nnc3c2C)C(C)(C)C(=O)O)cc1CN1CC2(CCOCC2)Oc2ncccc2S1(=O)=O | < 1 |
| Cc1c([C@@H](CC(=O)O)c2ccc(Cl)c(CN3CC4CCCCN4c4ncccc4S3(=O)=O)c2)ccn2c(C(F)(F)F)nnc12 (stereo partly specified) | < 1 |
| Cc1ccc(C(CC(=O)O)c2ccn3c(C(F)F)nnc3c2C)cc1CN1CC2CCCCN2c2ncc(C#N)cc2S1(=O)=O (stereo unspecified) | < 1 |
| CC[C@@H]1CN(Cc2nc([C@H](CC(=O)O)c3ccc4c(nnn4C4CC4)c3C)ccc2C)S(=O)(=O)c2cccnc2O1 | < 1 |
| Cc1ccc(C(CC(=O)O)c2ccc3c(nnn3CC3CC3)c2C)cc1CN1CC2(CC2)N(C)c2ncccc2S1(=O)=O (stereo unspecified) | < 1 |
| Cc1ccc([C@@H](c2ccn3c(C(F)(F)F)nnc3c2C)C(C)(C)C(=O)O)cc1CN1CC2(CCOCC2)Oc2nc(OCCCO)ccc2S1(=O)=O | < 1 |

| Compound | Kd [nM] |
| --- | --- |
| Cc1cnc(C(c2ccn3c(C(F)(F)F)nnc3c2C)C(C)(C)C(=O)O)cc1CN1CC2(CCOCC2)Oc2ncccc2S1(=O)=O (stereo unspecified) | < 1 |
| Cc1ccc(C(c2ccn3c(C(F)(F)F)nnc3c2C)C(C)(C)C(=O)O)cc1CN1CC2(CCOCC2)Oc2nc(OCCN3CCOCC3)ccc2S1(=O)=O (stereo unspecified) | < 1 |
| Cc1ccc([C@H](CC(=O)O)c2ccn3c(C(F)(F)F)nnc3c2C)cc1CN1C[C@H]2CCCCN2c2ncc(C#N)cc2S1(=O)=O | < 1 |
| Cc1ccc([C@H](CC(=O)O)c2ccn3c(C)nnc3c2)cc1CN1C[C@H]2CCCN2c2ncccc2S1(=O)=O | < 1 |
| Cc1ccc([C@H](CC(=O)O)c2ccn3c(C(F)(F)F)nnc3c2C)cc1CN1CC2(CC2)Oc2nc(N(C)CCCO)ccc2S1(=O)=O | < 1 |
| Cc1ccc([C@@H](c2ccn3c(C(F)(F)F)nnc3c2C)C(C)(C)C(=O)O)cc1CN1CC2(CCOCC2)Oc2nc(OCCN3CCCCC3)c(C)cc2S1(=O)=O | < 1 |
| Cc1ccc([C@@H](CC(=O)O)c2ccn3c(C(F)(F)F)nnc3c2C)nc1CN1C[C@H]2CCCCN2c2ncc(C#N)cc2S1(=O)=O | < 1 |
| Cc1cnc2c(c1)S(=O)(=O)N(Cc1cc([C@@H](CC(=O)O)c3ccn4c(C(F)(F)F)nnc4c3C)ccc1C)CC1(CC1)O2 | < 1 |
| Cc1ccc(C(c2ccn3c(C(F)(F)F)nnc3c2C)C(C)C(=O)O)cc1CN1C[C@@H]2CCCCN2c2ncccc2S1(=O)=O (stereo partly specified) | < 1 |
| Cc1ccc(C(c2ccn3c(C(F)(F)F)nnc3c2C)C(C)(C)C(=O)O)cc1CN1CC2(CCOCC2)Oc2nc(N[C@H](C)CCO)ccc2S1(=O)=O (stereo partly specified) | < 1 |
| Cc1cnc2c(c1)S(=O)(=O)N(Cc1cc([C@H](CC(=O)O)c3ccn4c(C(F)(F)F)nnc4c3C)ccc1Cl)CC1CCCCN21 (stereo partly specified) | < 1 |
| Cc1ccc([C@H](c2ccn3c(C(F)(F)F)nnc3c2C)C(C)(C)C(=O)O)cc1CN1CC2(CCOCC2)Oc2nc(OCC(=O)NCCO)ccc2S1(=O)=O | < 1 |
| Cc1ccc([C@H](c2ccn3c(C(F)(F)F)nnc3c2C)C(C)(C)C(=O)O)cc1CN1CC2(CCOCC2)Oc2nc(N[C@@H](C)CCO)c(C)cc2S1(=O)=O | < 1 |
| CCn1nnc2c(C)c([C@@H](CC(=O)O)c3ccc(C)c(CN4C[C@@H]5CCCN5c5ccccc5S4(=O)=O)c3)ccc21 | < 1 |
| CC[C@@H]1CN(Cc2nc(C(CC(=O)O)c3ccc4c(nnn4C4CC4)c3C)ccc2C)S(=O)(=O)c2cccnc2O1 (stereo partly specified) | < 1 |
| Cc1ccc([C@H](CC(=O)O)c2ccn3c(C(F)(F)F)nnc3c2C)nc1CN1C[C@H]2CCCCN2c2ncc(C#N)cc2S1(=O)=O | < 1 |
| CC[C@@H]1CN(Cc2cc(C(CC(=O)O)c3ccn4c(C)nnc4c3)ccc2C)S(=O)(=O)c2cccnc2O1 (stereo partly specified) | < 1 |
| Cc1ccc([C@@H](c2ccn3c(C(F)(F)F)nnc3c2C)C(C)(C)C(=O)O)nc1CN1CC2(CCOCC2)Oc2ncccc2S1(=O)=O | < 1 |
| Cc1ccc([C@@H](c2ccn3c(C(F)(F)F)nnc3c2C)C(C)(C)C(=O)O)cc1CN1CC2(CCOCC2)Oc2nc(NCCCO)ccc2S1(=O)=O | < 1 |
| Cc1ncc([C@H](c2ccc3c(nnn3C3CC3)c2C)C(C)(C)C(=O)O)cc1CN1CC2(CCOCC2)Oc2ncccc2S1(=O)=O | < 1 |
| Cc1ccc([C@H](CC(=O)O)c2ccn3c(C(F)(F)F)nnc3c2C)cc1CN1CC2(CC2)Oc2nc(NCCO)ccc2S1(=O)=O | < 1 |
| Cc1ccc(C(CC(=O)O)c2ccn3c(C(F)(F)F)nnc3c2C)nc1CN1CC2CCCCN2c2ncc(C#N)cc2S1(=O)=O (stereo unspecified) | < 1 |

| Compound | Kd [nM] |
| --- | --- |
| COCCCNc1ccc2c(n1)OC1(CC1)CN(Cc1cc([C@H](CC(=O)O)c3ccn4c(C(F)(F)F)nnc4c3C)ccc1C)S2(=O)=O | < 1 |
| CCn1nnc2c(C)c([C@H](CC(=O)O)c3ccc(C)c(CN4C[C@H]5CCCN5c5ccccc5S4(=O)=O)c3)ccc21 | < 1 |
| Cc1ccc(C(c2cc(C)n3c(C(F)(F)F)nnc3c2C)C(C)C(=O)O)cc1CN1C[C@@H]2CCCCN2c2ncccc2S1(=O)=O (stereo partly specified) | < 1 |
| Cc1ccc([C@@H](CC(=O)O)c2ccn3c(C)nnc3c2)cc1CN1C[C@H]2CCCN2c2ccccc2S1(=O)=O | < 1 |
| CCn1nnc2c(C)c([C@@H](c3cnc(C)c(CN4CC5(CCOCC5)Oc5ncc(C)cc5S4(=O)=O)c3)C(C)(C)C(=O)O)ccc21 | < 1 |
| Cc1ccc([C@H](c2ccn3c(C(F)(F)F)nnc3c2C)C(C)(C)C(=O)O)cc1CN1CC2(CCOCC2)Oc2nc(N[C@H](C)C(C)(C)O)c(C)cc2S1(=O)=O | < 1 |
| Cc1ccc([C@@H](CC(=O)O)c2ccn3c(C(F)(F)F)nnc3c2C)nc1CN1C[C@@H]2CCCCN2c2ncc(C#N)cc2S1(=O)=O | < 1 |
| Cc1ccc(C(CC(=O)O)c2ccn3c(C)nnc3c2)cc1CN1CC(C)(C)Oc2ncccc2S1(=O)=O (stereo unspecified) | < 1 |
| Cc1ccc([C@H](CC(=O)O)c2ccn3c(C)nnc3c2)cc1CN1C[C@H]2CCCN2c2ccccc2S1(=O)=O | < 1 |
| Cc1ccc(C(c2ccn3c(C(F)F)nnc3c2C)C(C)(C)C(=O)O)cc1CN1CC2(CCOCC2)Oc2ncccc2S1(=O)=O (stereo unspecified) | < 1 |
| Cc1c([C@@H](CC(=O)O)c2ccc(Cl)c(CN3CC4CCCCN4c4ncc(F)cc4S3(=O)=O)c2)ccn2c(C(F)(F)F)nnc12 (stereo partly specified) | < 1 |
| Cc1ccc([C@@H](c2ccn3c(C(F)F)nnc3c2C)C(C)(C)C(=O)O)cc1CN1CC2(CCOCC2)Oc2ncccc2S1(=O)=O | < 1 |
| Cc1c(C(CC(=O)O)c2ccc(Cl)c(CN3CC4CCCCN4c4ncc(F)cc4S3(=O)=O)c2)ccn2c(C(F)(F)F)nnc12 (stereo unspecified) | < 1 |
| Cc1c([C@H](CC(=O)O)c2ccc(Cl)c(CN3CC4CCCCN4c4ncc(F)cc4S3(=O)=O)c2)ccn2c(C(F)(F)F)nnc12 (stereo partly specified) | < 1 |
| CCn1nnc2c(C)c(C(c3cnc(C)c(CN4CC5(CCOCC5)Oc5ncc(C)cc5S4(=O)=O)c3)C(C)(C)C(=O)O)ccc21 (stereo unspecified) | < 1 |
| Cc1ccc([C@H](CC(=O)O)c2ccn3c(C4CC4)nnc3c2C)cc1CN1C[C@H]2CCCN2c2ncccc2S1(=O)=O | < 1 |
| Cc1ccc(C(c2ccn3c(C(F)(F)F)nnc3c2C)C(C)(C)C(=O)O)cc1CN1CC2(CCOCC2)Oc2nc(N[C@@H](C)CCO)ccc2S1(=O)=O (stereo partly specified) | < 1 |
| Cc1ccc([C@H](CC(=O)O)c2ccc3c(nnn3CC3CC3)c2C(F)F)cc1CN1C[C@H]2CCCCN2c2ncccc2S1(=O)=O | < 1 |
| Cc1ccc([C@H](CC(=O)O)c2ccn3c(C(F)(F)F)nnc3c2C)cc1CN1CC2(CC2)Oc2nc(NCCCO)ccc2S1(=O)=O | < 1 |
| Cc1ccc([C@H](CC(=O)O)c2ccn3c(C(F)(F)F)nnc3c2C)cc1CN1CC2(CC2)Oc2nc(NCCN3CCCCC3)ccc2S1(=O)=O | < 1 |
| Cc1c(C(CC(=O)O)c2ccc(Cl)c(CN3CC4CCCCN4c4ncccc4S3(=O)=O)c2)ccn2c(C(F)(F)F)nnc12 (stereo unspecified) | < 1 |
| Cc1ccc([C@H](CC(=O)O)c2ccn3c(C(F)(F)F)nnc3c2C)cc1CN1C[C@@H]2CCCCN2c2ncc(C#N)cc2S1(=O)=O | < 1 |
